The record followed here is patent publication EP2209789B1, “C[…] INDOLOB[…] NS5B INHIBITORS” (Bristol-Myers Squibb Company, priority 2007, dated 2009).

In one experiment the test system is HCV replicon. Description: HCV replicon FRET / luciferase assay. The experiment is classed as cell-based. The protocol: FRET Assay Preparation. The HCV FRET screening assay was performed in 96-well cell culture plates. The FRET peptide (Anaspec, Inc.) (Taliani et al., Anal. Biochem. 1996, 240, 60-67) contains a fluorescence donor, EDANS, near one end of the peptide and an acceptor, DABCYL, near the other end. The fluorescence of the peptide is quenched by […] resonance energy transfer (RET) between the donor and the acceptor, but as the NS3 protease cleaves the peptide the products are released from RET quenching and the fluorescence of the donor becomes apparent. The assay reagent was made as follows: 5X cell Luciferase cell culture lysis reagent from Promega (#E153A) diluted to 1X with dH2O, NaCl added to 150 mM final, the FRET peptide diluted to 20 µM final from a 2 mM stock.
To prepare plates, HCV replicon cells, with or without a Renilla luciferase reporter gene, were trypsinized and plated in a 96-well plate with titrated test compounds added in columns 3 through 12; columns 1 and 2 contained a control compound (HCV control inhibitor), and the bottom row contained cells with DMSO only. The plates were then placed in a CO2 incubator at 37 °C.
Assays. Subsequent to addition of the test compounds described above (FRET Assay Preparation), at various times the plate was removed and Alamar blue solution (Trek Diagnostics, #00-100) was added to measure cellular toxicity. After reading in a Cytoflour 4000 instrument (PE Biosystems), plates were rinsed with PBS and then used for FRET assay by the addition of 30 ul of the FRET peptide assay reagent described above (FRET Assay Preparation) per well. The plate was then placed into the Cytoflour 4000 instrument which had been set to 340 excite/490 emission, automatic mode for up to 20 cycles and the plate read in a kinetic mode. Typically, the signal to noise using an endpoint analysis after the reads was at least three-fold. Alternatively, after Alamar blue reading, plates were rinsed with PBS, then used for luciferase assay using the Promega Dual-Glo Luciferase Assay System or the Promega EnduRen Live Cell Substrate assay.
Compound analysis was performed by quantification of the relative HCV replicon inhibition and the relative cytotoxicity values. To calculate cytoxicity values, the average Alamar Blue fluorescence signals from the control wells were set as 100% non-toxic. The individual signals in each of the compound test wells were then divided by the average control signal and multiplied by 100% to determine […]. To calculate the HCV replicon inhibition values, an average background value was obtained from the two wells containing the highest amount of HCV control inhibitor at the end of the assay period. These numbers were similar to those obtained from naïve Huh-7 cells. The background numbers were then subtracted from the average signal obtained from the control wells and this number was used as 100% activity. The individual signals in each of the compound test wells were then divided by the averaged control values after background subtraction and multiplied by 100% to determine percent activity. […] The two numbers generated for the compound plate, percent cytoxicity and percent activity, were used to determine compounds of interest for further analysis.
Background: In antiviral work, replicon cells carry a viral genome segment that copies itself.

In the next experiment the target is T1, HCV NS5B (Hepatitis C virus genotype 1b, UniProt Q9WMX2).
T1 construct: The cDNA encoding the NS5B protein of HCV, genotype 1b; made in house; host or cells: E. coli BL21(DE3)
Description: HCV NS5B RdRp enzyme assay (standard or modified). Conditions: HCV RdRp genotype 1b enzyme; not stated whether standard or modified assay. The experiment is classed as biochemical. The protocol: HCV NS5B RdRp cloning, expression, and purification. The cDNA encoding the NS5B protein of HCV, genotype 1b, was cloned into the pET21a expression vector. The protein was expressed with an 18 amino acid C-terminal truncation to enhance the solubility. The E. coli competent cell line BL21(DE3) was used for expression of the protein. Cultures were grown at 37 °C for ~ 4 hours until the cultures reached an optical density of 2.0 at 600 nm. The cultures were cooled to 20 °C and induced with 1 mM IPTG. Fresh ampicillin was added to a final concentration of 50 µg/ml and the cells were grown overnight at 20 °C.
The lysis buffer consisted of 20 mM Tris-HCl, pH 7.4, 500 mM NaCl, 0.5% triton X-100, 1 mM DTT, 1 mM EDTA, 20% glycerol, 0.5 mg/ml lysozyme, 10 mM MgCl2, 15 ug/ml deoxyribonuclease I, and Complete TM protease inhibitor tablets (Roche). After addition of the lysis buffer, frozen cell pellets were resuspended using a tissue homogenizer. To reduce the viscosity of the sample, aliquots of the lysate were sonicated on ice using a microtip attached to a Branson sonicator. The sonicated lysate was centrifuged at 100,000 x g for Ihr at 4 °C and filtered through a 0.2 µm filter unit (Coming).
The protein was purified using two sequential chromatography steps: Heparin sepharose CL-6B and polyU sepharose 4B (Pharmacia). The chromatography buffers were identical to the lysis buffer but contained no lysozyme, deoxyribonuclease I, MgCl2 or protease inhibitor and the NaCl concentration of the buffer was adjusted according to the requirements for charging the protein onto the column. Each column was eluted with a NaCl gradient which varied in length from 5-50 column volumes depending on the column type. […] The enzyme was aliquoted and stored at -80 °C.
Standard HCV NSSB RdRp enzyme assay. HCV RdRp genotype 1b assays were run in a final volume of 60 µl in 96 well plates (Coming 3600). The assay buffer is composed of 20 mM Hepes, pH 7.5, 2.5 mM KCl, 2.5 mM MgCl2, 1 mM DTT, 1.6 U RNAse inhibitor (Promega N2515), 0.01 mg/ml BSA (Sigma B6917), and 2 % glycerol. All compounds were serially diluted (3-fold) in DMSO and diluted further in water such that the final concentration of DMSO in the assay was 2%. HCV RdRp genotype 1b enzyme was used at a final concentration of 28 nM. A polyA template was used at 6 nM, and a biotinylated oligo-dT12 primer was used at 180 nM final concentration. Template was obtained commercially (Amersham 27-4110). Biotinylated primer was prepared by Sigma Genosys. 3H-UTP was used at 0.6 µCi (0.29 µM total UTP). Reactions were initiated by the addition of enzyme, incubated at 30 °C for 60 min, and stopped by adding 25 µl of 50 mM EDTA containing SPA beads (4 µg/µl, Amersham RPNQ 0007). Plates were read on a Packard Top Count NXT after >1hr incubation at room temperature.
Modified HCV NS5B RdRp enzyme assay. A modified enzyme assay was performed essentially as described for the standard enzyme assay except for the following: The biotinylated oligo dT12 primer was precaptured on streptavidin-coated SPA beads by mixing primer and beads in assay buffer and incubating at room temperature for one hour. Unbound primer was removed after centrifugation. The primer-bound beads were resuspended in 20 mM Hepes buffer, pH 7.5 and used in the assay at final concentrations of 20 nM primer and 0.67 µg/µl beads. Order of addition in the assay: enzyme (1.75 nM) was added to diluted compound followed by the addition of a mixture of template (0.36 nM), 3H-UTP (0.6 µCi, 0.29 µM), and primer-bound beads, to initiate the reaction; concentrations given are final. Reactions were allowed to proceed for 4 hours at 30° C.
IC50 values for compounds were determined using seven different [I].

[1] abbreviates: HCV replicon cells, 50% reduction in FRET or luciferase activity.

T1 sequence (Q9WMX2 2420-2992): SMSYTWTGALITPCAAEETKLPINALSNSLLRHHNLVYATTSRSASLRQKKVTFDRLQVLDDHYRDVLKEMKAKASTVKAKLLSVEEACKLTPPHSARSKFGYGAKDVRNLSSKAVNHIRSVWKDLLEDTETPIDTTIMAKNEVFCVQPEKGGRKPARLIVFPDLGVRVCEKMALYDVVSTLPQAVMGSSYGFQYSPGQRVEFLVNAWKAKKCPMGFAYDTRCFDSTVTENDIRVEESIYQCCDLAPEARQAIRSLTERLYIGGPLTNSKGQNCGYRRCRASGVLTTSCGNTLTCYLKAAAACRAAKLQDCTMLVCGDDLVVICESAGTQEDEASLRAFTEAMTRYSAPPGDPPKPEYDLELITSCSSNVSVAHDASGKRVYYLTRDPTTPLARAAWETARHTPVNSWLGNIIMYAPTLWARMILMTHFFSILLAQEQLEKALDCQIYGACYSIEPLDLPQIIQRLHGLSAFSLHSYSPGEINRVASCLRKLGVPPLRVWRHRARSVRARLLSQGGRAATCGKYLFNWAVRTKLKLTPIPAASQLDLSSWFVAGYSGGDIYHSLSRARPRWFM

The EC50 is the concentration that produces a half-maximal response. In turn, `CCN(CC)C(=O)N1CC2CCC(C1)N2C(=O)C12CC1c1cc(OC)ccc1-c1c(C3CCCCC3)c3ccc(C(=O)NS(=O)(=O)C4CC4)cc3n1C2` (stereo not shown) gave an EC50 in the experiment with HCV replicon (Hepatitis C virus) of 1 to 500 nM. Molecule `CCN(CC)C(=O)N1CC2CCC(C1)N2C(=O)C12CC1c1cc(OC)ccc1-c1c(C3CCCCC3)c3ccc(C(=O)NS(=O)(=O)N4CCN(C)CC4)cc3n1C2` (stereo not shown) came in with an EC50 in the experiment with HCV replicon (Hepatitis C virus) of 1 to 500 nM. Regarding `COc1ccc2c(c1)[C@H]1C[C@@]1(C(=O)N1C3CCC1CN(C)C3)Cn1c-2c(C2CCCCC2)c2ccc(C(=O)NS(=O)(=O)C(C)C)cc21`, the EC50 in the experiment with HCV replicon (Hepatitis C virus) fell in the range of 1 to 500 nM. For the molecule `COc1ccc2c(c1)C1CC1(C(=O)N1C3CCC1CN(C)C3)Cn1c-2c(C2CCCCC2)c2ccc(C(=O)NS(=O)(=O)C(C)C)cc21` (stereo not shown), the EC50 with HCV replicon (Hepatitis C virus) was in the range of 1 to 500 nM. A word on the IC50: it is the concentration that inhibits the measured activity by half. In the experiment on HCV replicon (Hepatitis C virus), `COc1ccc2c(c1)C1CC1(C(=O)N1C3CCC1CN(C)C3)Cn1c-2c(C2CCCCC2)c2ccc(C(=O)NS(=O)(=O)C3CCCC3)cc21` (stereo not shown) registered an EC50 of 1 to 500 nM. This molecule also registered an IC50 at HCV NS5B of 1 to 500 nM. `COc1ccc2c(c1)C1CC1(C(=O)N1C3CCC1CN(C)C3)Cn1c-2c(C2CCCCC2)c2ccc(C(=O)NS(=O)(=O)C3CCCCC3)cc21` (stereo not shown) had a concentration for a half-maximal effect (EC50) in the experiment on HCV replicon (Hepatitis C virus) of 1 to 500 nM. Consider `COc1ccc2c(c1)C1CC1(C(=O)N1C3CCC1CN(C)C3)Cn1c-2c(C2CCCCC2)c2ccc(C(=O)NS(=O)(=O)CC(C)C)cc21` (stereo not shown), for which the EC50 in the experiment on HCV replicon (Hepatitis C virus) was in the range of 1 to 500 nM. Also, the IC50 against HCV NS5B lay within 1 to 500 nM.

Take `CCCS(=O)(=O)NC(=O)c1ccc2c(C3CCCCC3)c3n(c2c1)CC1(C(=O)N2C4CCC2CN(C)C4)CC1c1cc(OC)ccc1-3` (stereo not shown): in the experiment with HCV replicon (Hepatitis C virus), the EC50 lay in the range of 1 to 500 nM. Moreover, at HCV NS5B, the IC50 was 1 to 500 nM. In the case of `COc1ccc2c(c1)C1CC1(C(=O)N1C3CCC1CN(C)C3)Cn1c-2c(C2CCCCC2)c2ccc(C(=O)NS(=O)(=O)C(C)(C)C)cc21` (stereo not shown), in the experiment with HCV replicon (Hepatitis C virus), the concentration for a half-maximal effect (EC50) lay in the range of 1 to 500 nM. This molecule also had an IC50 against HCV NS5B of 1 to 500 nM. In the case of `CCCCS(=O)(=O)NC(=O)c1ccc2c(C3CCCCC3)c3n(c2c1)CC1(C(=O)N2C4CCC2CN(C)C4)CC1c1cc(OC)ccc1-3` (stereo not shown), the EC50 in the experiment on HCV replicon (Hepatitis C virus) was 1 to 500 nM.

In the experiment on HCV replicon (Hepatitis C virus), `CN1CC2CCC(C1)N2C(=O)C12CC1c1ccccc1-c1c(C3CCCCC3)c3ccc(C(=O)NS(=O)(=O)N(C)C)cc3n1C2` (stereo not shown) displayed an EC50 of 1 to 500 nM. Also, the IC50 at HCV NS5B lay in the range of 1 to 500 nM.

For `CC(C)S(=O)(=O)NC(=O)c1ccc2c(C3CCCCC3)c3n(c2c1)CC1(C(=O)N2C4CCC2CN(C)C4)CC1c1ccccc1-3` (stereo not shown), the concentration for a half-maximal effect (EC50) with HCV replicon (Hepatitis C virus) lay in the range of 1 to 500 nM. For the same molecule, on HCV NS5B, the IC50 lay within 1 to 500 nM. `CCC(CC)S(=O)(=O)NC(=O)c1ccc2c(C3CCCCC3)c3n(c2c1)CC1(C(=O)N2C4CCC2CN(C)C4)CC1c1cc(OC)ccc1-3` (stereo not shown) gave an EC50 with HCV replicon (Hepatitis C virus) above 110 nM. For `COc1ccc2c(c1)[C@@H]1C[C@]1(C(=O)N1C3CCC1CN(C)C3)Cn1c-2c(C2CCCCC2)c2ccc(C(=O)NS(=O)(=O)CC(C)C)cc21`, in the experiment with HCV replicon (Hepatitis C virus), the EC50 fell in the range of 1 to 500 nM. On HCV NS5B, this molecule registered a 50% inhibitory concentration (IC50) of 1 to 500 nM. Molecule `COc1ccc2c(c1)C1CC1(C(=O)N1C3CCC1CN(C)C3)Cn1c-2c(C2CCCCC2)c2ccc(C(=O)NS(=O)(=O)CC(F)F)cc21` (stereo not shown) displayed an EC50 with HCV replicon (Hepatitis C virus) of 1 to 500 nM. The same measure, in the same setting: to `COc1ccc2c(c1)C1CC1(C(=O)N1C3CCC1CN(C)C3)Cn1c-2c(C2CCCCC2)c2ccc(C(=O)NS(=O)(=O)C(F)(F)F)cc21` (stereo not shown) belongs 1 to 500 nM.

`COc1ccc2c(c1)C1CC1(C(=O)N1C3CCC1CN(C)C3)Cn1c-2c(C2CCCCC2)c2ccc(C(=O)NS(=O)(=O)CCC(F)(F)F)cc21` (stereo not shown) gave an EC50 with HCV replicon (Hepatitis C virus) of 1 to 500 nM. On HCV NS5B, this molecule registered a half-maximal inhibitory concentration (IC50) of 1 to 500 nM. The molecule `COc1ccc2c(c1)C1CC1(C(=O)N1C3CCC1CN(C)C3)Cn1c-2c(C2CCCCC2)c2ccc(C(=O)NS(=O)(=O)CC(F)(F)F)cc21` (stereo not shown) came in with an EC50 in the experiment with HCV replicon (Hepatitis C virus) of 1 to 500 nM. At HCV NS5B, the IC50 lay in the range of 1 to 500 nM.

The molecule `COc1ccc2c(c1)C1CC1(C(=O)N1C3CCC1CN(C)C3)Cn1c-2c(C2CCCCC2)c2ccc(C(=O)NS(=O)(=O)C3CCC3)cc21` (stereo not shown) [drawing 40] registered an EC50 in the experiment with HCV replicon (setting [1]) of 1 to 500 nM. At HCV NS5B, this molecule registered an IC50 of 1 to 500 nM. The molecule `CCC(C)S(=O)(=O)NC(=O)c1ccc2c(C3CCCCC3)c3n(c2c1)CC1(C(=O)N2C4CCC2CN(C)C4)CC1c1cc(OC)ccc1-3` (stereo not shown) [drawing 45] displayed an EC50 with HCV replicon (Hepatitis C virus) of 1 to 500 nM. The IC50 against HCV NS5B lay in the range of 1 to 500 nM. In the experiment on HCV replicon (Hepatitis C virus), `COc1ccc2c(c1)C1CC1(C(=O)N1C3CCC1CN(C)C3)Cn1c-2c(C2CCCCC2)c2ccc(C(=O)NS(=O)(=O)C3CCC3)cc21` (stereo not shown) [drawing 51] came in with an EC50 of 1 to 500 nM. In the experiment with HCV replicon (setting [1]), `CCC(C)S(=O)(=O)NC(=O)c1ccc2c(C3CCCCC3)c3n(c2c1)CC1(C(=O)N2C4CCC2CN(C)C4)CC1c1cc(OC)ccc1-3` (stereo not shown) [drawing 52] returned an EC50 of 1 to 500 nM. The molecule also had an IC50 at HCV NS5B of 1 to 500 nM.
